Results from patent USRE48097E1, “Cephem compounds, their production and use” (priority 2015, dated 2020).
≈ marks a conversion by molar mass, not a printed value. Like-named read-outs stand apart in the source and are kept apart here.

Tests used:
Assay type in all cases: cell-based
[1] = test system: S. pneumoniae 2407; experiment: MIC against S. pneumoniae 2407; settings: Table 2, S. pneumoniae 2407, Pen S
Text: (§1) Without limitation, the present cephem compounds alone, or in combination with one or more β-lactamase inhibitors, may provide improved antibacterial efficacy, particularly in antibiotic-resistant bacterial strains. It is believed that the present compounds may be structurally different from known compounds and, as a result, may be more basic in nature. It is an advantage that the present compounds may extend the spectrum of effective bacterial compounds, particularly against previously-resistant bacteria (e.g. ESKAPE organisms), and/or gram negative bacteria, without significant side effects. In a preferred embodiment, the present cephem compound may comprise reference compound ceftazidime, which may be used alone, or in combination with one or more β-lactamase inhibitors, such as NXL-104. As shown, the foregoing composition was tested for minimum inhibitory concentration (MIC, μg/mL) against bacteria listed in Tables 2-3.

[2] = test system: C. freundii 2487; experiment: MIC against C. freundii 2487; settings: Table 2, C. freundii 2487, Caz R, IMP S
Text: as §1

[3] = test system: K. pneumoniae 4107; experiment: MIC against K. pneumoniae 4107; settings: K. pneumoniae 4107, KPC-2, TEM-1, SHV-11
Protocol: (§2) As shown, the foregoing composition was tested for minimum inhibitory concentration (MIC, μg/mL) against bacteria listed in Tables 2-3.

[4] = test system: E. coli 4080; experiment: MIC against E. coli 4080; settings: Table 2, E. coli 4080, TEM-10
Text: as §1

[5] = test system: E. cloacae 2706; experiment: MIC against E. cloacae 2706; settings: Table 3, E. cloacae 2706, VIM-1, KPC-3
Protocol: as §2

[6] = test system: S. pneumoniae 2403; experiment: MIC against S. pneumoniae 2403; settings: Table 2, S. pneumoniae 2403, Pen S
Text: as §1

[7] = test system: S. aureus 3144; experiment: MIC against S. aureus 3144; settings: Table 2, S. aureus 3144, MSSA
Text: as §1

[8] = test system: S. pneumoniae 2392; experiment: MIC against S. pneumoniae 2392; settings: Table 2, S. pneumoniae 2392, Pen R
Text: as §1

[9] = test system: E. coli 4101; experiment: MIC against E. coli 4101; settings: Table 2, E. coli 4101, CTX-M-14, TEM-1
Text: as §1

[10] = test system: C. freundii 580; experiment: MIC against C. freundii 580; settings: Table 2, C. freundii 580, Caz R, IMP S
Text: as §1

[11] = test system: E. cloacae 2709; experiment: MIC against E. cloacae 2709; settings: Table 3, E. cloacae 2709, KPC-3, VIM-1
Protocol: as §2

[12] = test system: K. pneumoniae 4108; experiment: MIC against K. pneumoniae 4108; settings: K. pneumoniae 4108, KPC-3, TEM-166, SHV-12, SHV-141
Protocol: as §2

[13] = test system: S. pneumoniae 2404; experiment: MIC against S. pneumoniae 2404; settings: Table 2, S. pneumoniae 2404, Pen S
Text: as §1

[14] = test system: K. pneumoniae 2697; experiment: MIC against K. pneumoniae 2697; settings: Table 2, K. pneumoniae 2697, IMP-4
Text: as §1

[15] = Streptococcus pneumoniae, alone, read-out: MIC
[16] = Citrobacter freundii, alone, read-out: MIC
[17] = Klebsiella pneumoniae, 4107, Table 2, alone, read-out: MIC
[18] = Klebsiella pneumoniae, 4107, Table 3, alone, read-out: MIC
[19] = Table 2, in combination with NXL-104
[20] = Table 3, in combination with NXL-104
[21] = Escherichia coli, alone, read-out: MIC
[22] = Enterobacter cloacae, alone, read-out: MIC
[23] = Staphylococcus aureus, alone, read-out: MIC
[24] = Klebsiella pneumoniae, 4108, Table 2, alone, read-out: MIC
[25] = Klebsiella pneumoniae, 4108, Table 3, alone, read-out: MIC
[26] = Klebsiella pneumoniae, alone, read-out: MIC

| MIC [1, 15] | MIC ([1]; in combination with NXL-104) | MIC [2, 16] | MIC ([2]; in combination with NXL-104) | MIC [3, 17] | MIC [3, 18] | MIC [3, 19] | MIC [3, 20] | MIC [4, 21] | MIC [5, 22] | MIC [6, 15] | MIC [7, 23] | MIC [8, 15] | MIC [9, 21] | MIC [10, 16] | MIC [11, 22] | MIC [12, 24] | MIC [12, 25] | MIC [13, 15] | MIC [14, 26] | Structure (SMILES) | further results |
| --- | --- | --- | --- | --- | --- | --- | --- | --- | --- | --- | --- | --- | --- | --- | --- | --- | --- | --- | --- | --- | --- |
| ≤ 0.06 µg/mL | ≤0.06 µg/mL | 8 µg/mL | 1.00 µg/mL | 32 µg/mL (≈ 45.2 µM) | 16 µg/mL (≈ 22.6 µM) | 2.00 µg/mL | 1 µg/mL | 16 µg/mL | > 32 µg/mL | ≤ 0.06 µg/mL | 8 µg/mL | 2 µg/mL | 0.5 µg/mL | 4 µg/mL | 32 µg/mL (≈ 45.2 µM) | 16 µg/mL (≈ 22.6 µM) | 32 µg/mL (≈ 45.2 µM) | ≤ 0.06 µg/mL | 16 µg/mL | CC(C)(O/N=C(\C(=O)N[C@@H]1C(=O)N2C(C(=O)[O-])=C(C[n+]3ccc4c(ccn4Cc4cc(C(=N)N)co4)c3)CS[C@H]12)c1csc(N)n1)C(=O)O [Example 6, (6R,7R)-7-{[(2Z)-2-(2-Amino-1,3-thiazol-4-yl)-2-{[(2-carboxypropan-2-yl)oxy]imino}acetyl]amino}-3-({1-[(4-carbamimidoylfuran-2-yl)methyl]-1H-pyrrolo[3,2-c]pyridin-5-ium-5-yl}methyl)-8-oxo-5-thia-1-azabicyclo[4.2.0]oct-2-ene-2-carboxylate] | MIC ([4]; in combination with NXL-104): 0.50 µg/mL; MIC ([5]; in combination with NXL-104): 32 µg/mL; MIC ([6]; in combination with NXL-104): ≤0.06 µg/mL; MIC ([7]; in combination with NXL-104): 8.00 µg/mL; MIC ([8]; in combination with NXL-104): 2.00 µg/mL; MIC ([9]; in combination with NXL-104): ≤0.06 µg/mL; MIC ([10]; in combination with NXL-104): 0.25 µg/mL; MIC ([11]; in combination with NXL-104): 4 µg/mL; MIC [12, 19]: 0.50 µg/mL; MIC [12, 20]: 1 µg/mL; MIC ([13]; in combination with NXL-104): ≤0.06 µg/mL; MIC ([14]; in combination with NXL-104): 0.50 µg/mL |
| 0.12 µg/mL |  | 32 µg/mL |  | 16 µg/mL (≈ 22.3 µM) | 32 µg/mL (≈ 44.6 µM) |  |  | 4 µg/mL | > 32 µg/mL | ≤ 0.06 µg/mL | 4 µg/mL | 2 µg/mL | 0.5 µg/mL | 16 µg/mL | 32 µg/mL (≈ 44.6 µM) | 4 µg/mL (≈ 5.57 µM) | 32 µg/mL (≈ 44.6 µM) | 0.25 µg/mL | 4 µg/mL | CC(C)(O/N=C(\C(=O)N[C@@H]1C(=O)N2C(C(=O)[O-])=C(C[n+]3ccc4c(ccn4Cc4ccc(C(=N)N)cc4)c3)CS[C@H]12)c1csc(N)n1)C(=O)O [Ex-1, (6R,7R)-7-{[(2Z)-2-(2-Amino-1,3-thiazol-4-yl)-2-{[(2-carboxypropan-2-yl)oxy]imino}acetyl]-amino}-3-{[1-(4-carbamimidoylbenzyl)-1H-pyrrolo[3,2-c]pyridin-5-ium-5-yl]methyl}-8-oxo-5-thia-1-azabicyclo[4.2.0]oct-2-ene-2-carboxylate] |  |
| ≤ 0.06 µg/mL | ≤0.06 µg/mL | 32 µg/mL | 1.00 µg/mL | 32 µg/mL (≈ 44.2 µM) | 16 µg/mL (≈ 22.1 µM) | 2.00 µg/mL | 1 µg/mL | 16 µg/mL | > 32 µg/mL | ≤ 0.06 µg/mL | 4 µg/mL | 2 µg/mL | 0.5 µg/mL | 8 µg/mL | 32 µg/mL (≈ 44.2 µM) | 8 µg/mL (≈ 11.1 µM) | 32 µg/mL (≈ 44.2 µM) | ≤ 0.06 µg/mL | 16 µg/mL | CC(C)(O/N=C(\C(=O)N[C@@H]1C(=O)N2C(C(=O)[O-])=C(C[n+]3ccc4c(ccn4Cc4cc(C(=N)N)cs4)c3)CS[C@H]12)c1csc(N)n1)C(=O)O [Example 5, (6R,7R)-7-{[(2Z)-2-(2-Amino-1,3-thiazol-4-yl)-2-{[(2-carboxypropan-2-yl)oxy]imino}acetyl]amino}-3-({1-[(4-carbamimidoylthiophen-2-yl)methyl]-1H-pyrrolo[3,2-c]pyridin-5-ium-5-yl}methyl)-8-oxo-5-thia-1-azabicyclo[4.2.0]oct-2-ene-2-carboxylate] | MIC ([4]; in combination with NXL-104): 0.50 µg/mL; MIC ([5]; in combination with NXL-104): 32 µg/mL; MIC ([6]; in combination with NXL-104): ≤0.06 µg/mL; MIC ([7]; in combination with NXL-104): 4.00 µg/mL; MIC ([8]; in combination with NXL-104): 1.00 µg/mL; MIC ([9]; in combination with NXL-104): 0.12 µg/mL; MIC ([10]; in combination with NXL-104): 0.25 µg/mL; MIC ([11]; in combination with NXL-104): 4 µg/mL; MIC [12, 19]: 0.50 µg/mL; MIC [12, 20]: 1 µg/mL; MIC ([13]; in combination with NXL-104): ≤0.06 µg/mL; MIC ([14]; in combination with NXL-104): 0.50 µg/mL |
| 0.12 µg/mL | 0.12 µg/mL | 8 µg/mL | 1.00 µg/mL | 16 µg/mL (≈ 22.6 µM) | > 32 µg/mL | 4.00 µg/mL | 2 µg/mL | 8 µg/mL | > 32 µg/mL | ≤ 0.06 µg/mL | 4 µg/mL | 8 µg/mL | 0.5 µg/mL | 4 µg/mL | 16 µg/mL (≈ 22.6 µM) | 4 µg/mL (≈ 5.64 µM) | > 32 µg/mL | 0.25 µg/mL | 4 µg/mL | CC(C)(O/N=C(\C(=O)N[C@@H]1C(=O)N2C(C(=O)[O-])=C(C[n+]3ccc4n3CCN4Cc3ccc(C(=N)N)cc3)CS[C@H]12)c1csc(N)n1)C(=O)O [Example 2, (6R,7R)-7-{[(2Z)-2-(2-Amino-1,3-thiazol-4-yl)-2-{[(2-carboxypropan-2-yl)oxy]imino}acetyl]amino}-3-{[1-(4-carbamimidoylbenzyl)-2,3-dihydro-1H-imidazo[1,2-b]pyrazol-5-ium-5-yl]methyl}-8-oxo-5-thia-1-azabicyclo[4.2.0]oct-2-ene-2-carboxylate] | MIC ([4]; in combination with NXL-104): 1.00 µg/mL; MIC ([5]; in combination with NXL-104): 32 µg/mL; MIC ([6]; in combination with NXL-104): ≤0.06 µg/mL; MIC ([7]; in combination with NXL-104): 4.00 µg/mL; MIC ([8]; in combination with NXL-104): 8.00 µg/mL; MIC ([9]; in combination with NXL-104): 0.12 µg/mL; MIC ([10]; in combination with NXL-104): 0.50 µg/mL; MIC ([11]; in combination with NXL-104): 4 µg/mL; MIC [12, 19]: 1.00 µg/mL; MIC [12, 20]: 2 µg/mL; MIC ([13]; in combination with NXL-104): 0.25 µg/mL; MIC ([14]; in combination with NXL-104): 1.00 µg/mL |
